{
  "source": "patent US10870654B2",
  "about": "“Pharmaceutically acceptable salts and polymorphic forms of hydrocodone benzoic acid enol ester and processes for making same” (KemPharm, Inc., priority 2013, dated 2020)",
  "key": {"[1]": {"description": "A number of experiments were performed to map out the relative stability of Forms I to V. Prior to the relative stability tests, the solids of Forms I, II and III were dried in the oven to remove surface water."}, "[2]": {"conditions": "RH>90% at room temperature; hydrochloride"}, "[3]": {"conditions": "37° C.; for water solubility: hydrochloride", "excerpt": "Hydrocodone benzoic acid enol ester HCl exists in at least 6 distinct solid forms, designated herein as Forms I-V and amorphous. FIG. 1 is a scheme that depicts the general processes for converting hydrocodone benzoic acid enol ester HCl between its polymorphic forms I-V. Each polymorph has different characteristics, including solubility and stability."}},
  "note": "Read-outs that look alike come from different tables or passages of the source.",
  "data": [
    {"smiles": "COc1ccc2c3c1O[C@H]1C(OC(=O)c4ccccc4)=CC[C@@H]4[C@@H](C2)N(C)CC[C@@]341.Cl", "note": "[Form I, hydrocodone benzoic acid enol ester hydrochloride]", "values": [
      {"measurement": "relative stability of forms in slurry", "setting": "[1]; in water or organic solvents that contain water", "result": "always the most stable"},
      {"measurement": "stability under high humidity", "setting": "[2]", "result": "stable for at least two weeks"},
      {"measurement": "water solubility", "setting": "[3]", "result": "about 24 mg/mL"}
    ]},
    {"smiles": "COc1ccc2c3c1O[C@H]1C(OC(=O)c4ccccc4)=CC[C@@H]4[C@@H](C2)N(C)CC[C@@]341.Cl", "note": "[Form II, hydrocodone benzoic acid enol ester hydrochloride]", "values": [
      {"measurement": "relative stability of forms in slurry", "setting": "[1]; in anhydrous organic solvents, especially at higher temperatures", "result": "the more stable one"},
      {"measurement": "stability under high humidity", "setting": "[2]", "result": "hygroscopic and unstable, and converted to Form IV"},
      {"measurement": "water solubility", "setting": "[3]", "result": "> 200", "unit": "mg/mL"},
      {"measurement": "water solubility relative to Form I", "setting": "[3]; times higher than the solubility of Form I", "result": 9, "unit": "times"}
    ]},
    {"smiles": "COc1ccc2c3c1O[C@H]1C(OC(=O)c4ccccc4)=CC[C@@H]4[C@@H](C2)N(C)CC[C@@]341.Cl", "note": "[Form III, hydrocodone benzoic acid enol ester hydrochloride]", "values": [
      {"measurement": "stability under high humidity", "setting": "[2]", "result": "hygroscopic and unstable, and converted to Form V"}
    ]},
    {"smiles": "COc1ccc2c3c1O[C@H]1C(OC(=O)c4ccccc4)=CC[C@@H]4[C@@H](C2)N(C)CC[C@@]341.Cl", "note": "[I + II + III, hydrocodone benzoic acid enol ester hydrochloride]", "values": [
      {"measurement": "Form after 1 day slurry", "setting": "[1]; solvent Acetonitrile, 25° C.", "result": "I + traces of II"},
      {"measurement": "Form after 1 day slurry", "setting": "[1]; solvent IPA, 25° C.", "result": "I + II"},
      {"measurement": "Form after 1 day slurry", "setting": "[1]; solvent IPA, 50° C.", "result": "I + II"}
    ]}
  ]
}
